“Also recorded” adds a separate entry of the source.
Assays:
[1] = tested on: Malondialdehyde (MDA) produced by platelet; assay: Inhibition of malondialdehyde (MDA) generation by thrombin-stimulated platelets (TBA method); type: cell-based, rats (Male Sprague-Dawley); details: rat platelet
Method: A platelet is agglutinated by the stimulus on thrombin. TXA2 is released by this stimulation, and it accelerated the agglutination of the platelet. And the malondialdehyde(MDA) is released with TXA2 . It is conducted whether the extract of the Ilex pubescens inhibits the production of MDA (Determination of Melondialdehyde) or not by the colorimetry method. As the extraction solvent, methanol, butanol and water are used. […] Their structures are as follows:
Male Sprague-Dawley rats, weightin 180-200 g, were used in experiment. Blood was collected by the same method with (test 1-2). 100 sample was let stand for 20 minutes, in polypropylene tube. It was centrifuged (1400 r.p.m. for 20 minutes) at 10° C. to obtain platelet rich plasma (PRP). PRP was recentrifuged (2800 r.m.p., for 20 minutes) at 10° C. to obtain precipitated platelet pellet. Platelet was suspended in 0.01 M of pH 7.4 phosphate buffer (1×10^9 cell/ml). To the platelet suspension, 100 µl of methanol extracts of Ilex pubescens was added and the reaction mixture was preincubated in thermostat of 37° C. for 20 minutes. 50 µl of thrombin (10 U) was then added to agglutinate the platelet, and thiobarbituric acid (TBA) was added as the couple. This reaction mixture was extracted by 2 ml of n-butanol and the n-butanol phase was separated by centrifugation (1200 r.p.m. for 10 minutes) at 30° C. The absorbance of n-butanol phase was observed by UV-spectrophotometer at 534 nm.
1 kg of root of Ilex pubescens was powdered and the powder of Ilex pubescens was extracted 4 times with each 500 ml of 70% methanol by heating in water bath. […] 12 g of methanol extract was suspended in the small amount of water and extracted with butanol several times. […] 12 g of methanol extract of Ilex pubescens, 4.1 g of butanol fraction and 6 g of water fraction were dissolved to 20 ml of methanol solutions, respectively. 1m1 of each solution was taken in test tube and methanol was removed under nitrogen atmosphere. Residue was suspended in 1m1 of 0.01 M phosphate buffer. 0.1 ml of suspension was used as sample.
*1 ml of washed platelet (1 × 10^9 cells/ml) of rats was
preincubated (37° C. for 30 minutes) with 0.1 ml of sample in 0.01
M phosphate buffer (pH 7.4, in normal saline). Then, to the agglutinated
platelet, 50 μl of bovine thrombin (10 U) was added.
**MDA was determined by the method of TBA. Each value is the mean of 2
Therefore, 4.1 g of butanol fraction was dissolved in 10 ml of methanol and chromatographed on Sephadex LH-20 column (Sigma Co., 3.8×66 cm) with methanol as eluant. After the first eluate (260 ml) corresponding to the void volume of the column was eluted, the eluate was collected in test tubes at the volume of 21ml. 12 fractions were obtained.
Each fraction was dissolved in 10 ml of methanol and 0.5 ml of methanol solution was taken. The solvent was evaporated under nitrogen atmosphere. The residue was suspended in 1m1 of 0.01 M phosphate buffer and 0.1m1 was used as sample. Inhibition of MDA generation was measured by the same method with Test 2-1).
*4.1 g of butanol extract was chromatographed on Sephadex LH20 column (3,
× 66 cm) with methanol as eluant.
**Each fraction was dissolved in 10 ml of methanol and 0.5 ml of solution

thromboxane synthase = details: known property; cited from earlier work

| Compound | inhibition of MDA generation, result in words [1] | also measured |
| --- | --- | --- |
| C[C@H]1CC[C@]2(C(=O)O)CC[C@]3(C)C(=CC[C@@H]4[C@@]5(C)CC[C@H](O[C@@H]6OC[C@@H](O)[C@H](O)[C@H]6O[C@@H]6O[C@H](CO)[C@@H](O)[C@H](O)[C@H]6O)C(C)(C)[C@@H]5CC[C@]43C)[C@@H]2[C@]1(C)O [Ilexoside D] | exhibited the greatest antithrombic activity | inhibition of MDA generation, result in words ([1]; listed as ilexoside D): effective; also recorded: inhibits MDA production |
| C[C@H]1CC[C@]2(C(=O)O[C@@H]3O[C@H](CO)[C@@H](O)[C@H](O)[C@H]3O)CC[C@]3(C)C(=CC[C@@H]4[C@@]5(C)CC[C@H](O[C@@H]6OC[C@@H](O)[C@H](O)[C@H]6O[C@@H]6O[C@H](CO)[C@@H](O)[C@H](O)[C@H]6O)C(C)(C)[C@@H]5CC[C@]43C)[C@@H]2[C@]1(C)O [Ilexoside K] | had no effect; also recorded: ineffective | – |
| C[C@@H]1O[C@@H](O[C@H]2[C@H](O[C@H]3[C@H](O[C@H]4CC[C@]5(C)[C@H]6CC=C7[C@H]8[C@](C(=O)O[C@@H]9O[C@H](CO)[C@@H](O)[C@H](O)[C@H]9O)(CC[C@H](C)[C@@]8(C)O)CC[C@@]7(C)[C@]6(C)CC[C@H]5C4(C)C)OC[C@@H](O)[C@@H]3O)O[C@H](CO)[C@@H](O)[C@@H]2O)[C@H](O)[C@H](O)[C@H]1O [Ilexoside O] | exhibited no effect | inhibition of MDA generation, result in words ([1]; listed as ilexoside O): ineffective |
| c1c[nH]cn1 [Imidazole] | – | inhibition of thromboxane synthase, in words (thromboxane synthase): known as the inhibitor of thromboxane synthase |
| CC1CCC2(C(=O)O)CCC3(C)C(=CCC4C5(C)CCC(O)C(C)(C(=O)O)C5CCC43C)C2C1(C)O (stereo not drawn) [Pubescenic acid] | inhibits MDA production | IC50 (concentration inhibiting 50% of MDA generation) ([1]; isolated components, imidazole as control): 0.41 mg |
| Prosapogenin A | did not inhibit MDA generation | – |

Source: US4987125A, “Antithrombotic activity of the triterpenoids of ilex pubescens and the conversion method of the triterpenoids of ilex pubescens having no antithrombotic activity into the triterpenoids having antithrombotic activity” (Cheil Sugar & Co., Ltd., priority 1988, dated 1991)
